Laboratory results taken from US20230257364A1, “PYRIDAZINONE-BASED COMPOUNDS AS AXL, C-MET, AND MER INHIBITORS AND METHODS OF USE THEREOF” (CMG Pharmaceutical Co., Ltd., priority 2022, published 2023).

Experiments:
Format in all cases: biochemical
[1] = target: C-MET (Homo sapiens, UniProt P08581); assay: Enzymatic kinase assay (ADP-GLO), C-MET; conditions: 10 μM ATP, poly (Glu4, Tyr1) substrate, 60 min room temperature, luminescence; read-out: Enzymatic assay IC50 (nM) C-MET
Method: (§1) This example illustrates an enzymatic assay to determine the inhibitory activity of exemplary compounds of Formula (I) in an aspect of the invention.
All the kinase reactions were performed in 5 μL using tyrosine kinase buffer with 0.2 μg/μL poly (Glu4, Tyr1) substrate, 10 μM ATP, serial dilution of the inhibitor, and incubated at room temperature for 60 min. After the indicated incubation times, 5 μL ADP-GLO™ reagent (Promega, Madison, Wis.) was added to the reactions and the plate was incubated at room temperature for 40 min. […] All 384-well assay plates were read using a GLOMAX™ Discover Microplate Luminometer from Promega (Madison, Wis.). To plot, analyze the data and calculate all kinase reaction biochemical values, both Microsoft Excel and Prism from GraphPad 7 Software (La Jolla, Calif.) were used.

[2] = target: T1, AXL (Homo sapiens, UniProt P30530); assay: Enzymatic kinase assay (ADP-GLO), AXL; conditions: 10 μM ATP, poly (Glu4, Tyr1) substrate, 60 min room temperature, luminescence
T1 sequence (P30530 26-894): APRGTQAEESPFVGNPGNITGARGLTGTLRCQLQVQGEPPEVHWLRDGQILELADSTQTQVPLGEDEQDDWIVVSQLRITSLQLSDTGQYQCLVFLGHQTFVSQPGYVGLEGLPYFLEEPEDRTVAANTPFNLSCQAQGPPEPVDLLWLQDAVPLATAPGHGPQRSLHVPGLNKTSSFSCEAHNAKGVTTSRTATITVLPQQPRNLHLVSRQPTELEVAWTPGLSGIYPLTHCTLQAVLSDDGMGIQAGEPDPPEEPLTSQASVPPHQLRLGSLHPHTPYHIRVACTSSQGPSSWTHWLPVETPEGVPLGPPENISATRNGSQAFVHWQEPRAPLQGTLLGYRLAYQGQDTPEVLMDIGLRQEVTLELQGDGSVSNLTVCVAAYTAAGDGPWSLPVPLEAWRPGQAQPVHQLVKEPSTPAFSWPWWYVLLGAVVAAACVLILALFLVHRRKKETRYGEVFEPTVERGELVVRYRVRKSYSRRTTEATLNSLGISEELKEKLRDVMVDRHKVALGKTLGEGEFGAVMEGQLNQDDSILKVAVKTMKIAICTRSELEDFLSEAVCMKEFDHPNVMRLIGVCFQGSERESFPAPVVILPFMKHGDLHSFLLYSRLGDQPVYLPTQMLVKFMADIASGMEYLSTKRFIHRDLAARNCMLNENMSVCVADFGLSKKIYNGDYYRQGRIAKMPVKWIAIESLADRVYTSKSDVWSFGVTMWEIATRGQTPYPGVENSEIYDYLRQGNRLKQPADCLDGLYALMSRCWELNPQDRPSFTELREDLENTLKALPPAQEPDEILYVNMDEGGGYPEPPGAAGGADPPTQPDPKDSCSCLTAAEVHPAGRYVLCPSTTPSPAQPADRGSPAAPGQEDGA
Method: as §1
(§2) All the kinase reactions were performed in 5 μL using tyrosine kinase buffer with 0.2 μg/μL poly (Glu4, Tyr1) substrate, 10 μM ATP, serial dilution of the inhibitor, and incubated at room temperature for 60 min. After the indicated incubation times, 5 μL ADP-GLO™ reagent (Promega, Madison, Wis.) was added to the reactions and the plate was incubated at room temperature for 40 min. Then, 10 μL of kinase detection reagent was added and after an incubation time of 40 min, luminescence was recorded and IC50 values were determined (Table 1). All 384-well assay plates were read using a GLOMAX™ Discover Microplate Luminometer from Promega (Madison, Wis.). To plot, analyze the data and calculate all kinase reaction biochemical values, both Microsoft Excel and Prism from GraphPad 7 Software (La Jolla, Calif.) were used.

[3] = target: T2, MER (Homo sapiens, UniProt Q12866); assay: Enzymatic kinase assay (ADP-GLO), MER; conditions: 10 μM ATP, poly (Glu4, Tyr1) substrate, 60 min room temperature, luminescence
T2 sequence (Q12866 21-999): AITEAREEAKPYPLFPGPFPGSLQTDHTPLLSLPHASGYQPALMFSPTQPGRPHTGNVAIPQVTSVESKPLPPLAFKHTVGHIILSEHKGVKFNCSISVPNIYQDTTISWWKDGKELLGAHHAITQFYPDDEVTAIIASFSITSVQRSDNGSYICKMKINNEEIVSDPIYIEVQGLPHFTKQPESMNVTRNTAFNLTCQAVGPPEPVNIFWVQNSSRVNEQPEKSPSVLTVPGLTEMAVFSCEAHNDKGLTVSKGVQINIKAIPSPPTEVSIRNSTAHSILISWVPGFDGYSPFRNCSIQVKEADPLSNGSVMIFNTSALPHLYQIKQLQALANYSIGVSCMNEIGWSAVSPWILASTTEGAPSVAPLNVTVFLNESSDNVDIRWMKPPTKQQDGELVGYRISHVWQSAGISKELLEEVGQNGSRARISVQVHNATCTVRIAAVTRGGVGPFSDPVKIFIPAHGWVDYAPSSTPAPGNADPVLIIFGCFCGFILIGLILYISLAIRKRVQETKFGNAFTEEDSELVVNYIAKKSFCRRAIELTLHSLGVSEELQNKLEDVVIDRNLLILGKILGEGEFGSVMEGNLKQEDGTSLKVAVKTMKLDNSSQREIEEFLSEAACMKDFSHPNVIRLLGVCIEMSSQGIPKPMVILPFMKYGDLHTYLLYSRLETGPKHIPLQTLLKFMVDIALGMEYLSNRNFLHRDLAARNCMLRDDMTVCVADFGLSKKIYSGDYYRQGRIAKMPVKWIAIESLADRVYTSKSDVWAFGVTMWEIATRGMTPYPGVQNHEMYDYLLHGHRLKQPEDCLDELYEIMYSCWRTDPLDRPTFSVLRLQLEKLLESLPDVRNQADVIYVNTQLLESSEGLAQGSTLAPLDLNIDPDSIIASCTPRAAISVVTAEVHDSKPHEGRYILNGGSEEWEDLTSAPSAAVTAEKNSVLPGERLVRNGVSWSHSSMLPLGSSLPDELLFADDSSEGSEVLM
Method: as §1, §2

Measured: IC50

Sequence of C-MET (P08581 25-1390): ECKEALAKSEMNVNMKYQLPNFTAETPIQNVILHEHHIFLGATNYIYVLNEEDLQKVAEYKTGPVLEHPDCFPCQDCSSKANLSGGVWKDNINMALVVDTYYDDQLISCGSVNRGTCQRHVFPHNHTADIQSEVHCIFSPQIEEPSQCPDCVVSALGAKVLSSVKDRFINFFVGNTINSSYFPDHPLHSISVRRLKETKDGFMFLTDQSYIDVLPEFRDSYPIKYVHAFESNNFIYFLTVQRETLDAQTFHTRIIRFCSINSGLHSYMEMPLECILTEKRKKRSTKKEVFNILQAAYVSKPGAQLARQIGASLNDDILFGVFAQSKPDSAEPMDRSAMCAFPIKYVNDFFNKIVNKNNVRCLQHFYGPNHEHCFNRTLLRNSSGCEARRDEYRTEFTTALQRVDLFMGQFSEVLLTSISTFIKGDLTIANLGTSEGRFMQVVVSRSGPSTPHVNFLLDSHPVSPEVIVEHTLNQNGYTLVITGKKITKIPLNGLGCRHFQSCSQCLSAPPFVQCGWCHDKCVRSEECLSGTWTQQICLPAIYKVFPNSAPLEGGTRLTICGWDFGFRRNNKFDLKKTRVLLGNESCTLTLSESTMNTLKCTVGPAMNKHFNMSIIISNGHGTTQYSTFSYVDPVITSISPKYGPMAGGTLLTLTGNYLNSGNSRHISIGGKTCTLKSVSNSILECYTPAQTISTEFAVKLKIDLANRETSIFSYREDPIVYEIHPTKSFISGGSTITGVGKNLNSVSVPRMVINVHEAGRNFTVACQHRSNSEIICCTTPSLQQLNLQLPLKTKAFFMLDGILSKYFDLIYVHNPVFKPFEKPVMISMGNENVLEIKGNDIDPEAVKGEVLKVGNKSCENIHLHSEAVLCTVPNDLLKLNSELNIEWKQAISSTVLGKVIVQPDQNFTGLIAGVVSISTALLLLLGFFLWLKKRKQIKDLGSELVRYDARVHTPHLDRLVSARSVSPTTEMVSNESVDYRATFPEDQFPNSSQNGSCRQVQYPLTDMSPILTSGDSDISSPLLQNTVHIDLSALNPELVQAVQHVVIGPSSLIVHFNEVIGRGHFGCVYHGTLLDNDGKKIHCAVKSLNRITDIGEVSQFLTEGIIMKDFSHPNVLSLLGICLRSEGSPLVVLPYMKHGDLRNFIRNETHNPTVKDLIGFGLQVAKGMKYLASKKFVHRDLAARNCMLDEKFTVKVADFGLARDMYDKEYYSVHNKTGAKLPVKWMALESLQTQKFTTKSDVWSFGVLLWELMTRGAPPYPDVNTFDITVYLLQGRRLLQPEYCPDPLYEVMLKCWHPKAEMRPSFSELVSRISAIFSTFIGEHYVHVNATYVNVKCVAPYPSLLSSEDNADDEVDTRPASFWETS

CC(C)N1CCC(CC#Cc2c(Oc3ccc(NC(=O)c4ccnn(-c5ccc(F)cc5)c4=O)cc3F)ccnc2N)CC1 [Example 32, N-(4-(2-amino-3-(3-(1-isopropylpiperidin-4-yl)prop-1-ynyl)pyridin-4-yloxy)-3-fluorophenyl)-2-(4-fluorophenyl)-3-oxo-2,3-dihydropyridazine-4-carboxamide]
< 100 nM: all assays above
